Results: PubChem BioAssay (NCI)
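Exposure lasted 48 hours, with cells grown in 96-well plates and compounds tested at five concentrations. GI50 marks 50% less growth. At the TGI there is no net growth.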

Experiments:
Test in all cases: inhibition of tumour cell growth, NCI panel, 48 h
[1] = test system: SNB-19 CNS
[2] = test system: HOP-62 NSCLC
[3] = test system: NCI-H23 lung
[4] = test system: ACHN renal
[5] = test system: EKVX NSCLC
[6] = test system: SF-268 CNS
[7] = test system: OVCAR-5 ovarian
[8] = test system: PC-3 prostate
[9] = test system: U251 CNS
[10] = test system: HCT-15 colon
[11] = test system: HCC-2998 colon
[12] = test system: A498 renal
[13] = test system: HOP-92 NSCLC
[14] = test system: T-47D breast
[15] = test system: NCI/ADR-RES ovarian
[16] = test system: DU-145 prostate
[17] = test system: SK-MEL-2 melanoma
[18] = test system: SW-620 colon
[19] = test system: SNB-75 CNS
[20] = test system: SN12C renal
[21] = test system: HL-60(TB) leukemia
[22] = test system: CCRF-CEM leukemia
[23] = test system: SF-295 CNS
[24] = test system: UACC-62 melanoma
[25] = test system: BT-549 breast
[26] = test system: NCI-H226 lung
[27] = test system: RXF 393 renal
[28] = test system: LOX IMVI melanoma

COC1/C=C/OC2(C)Oc3c(C)c(O)c4c(O)c(c(/C=N/N(c5ccccc5)c5ccccc5)c(O)c4c3C2=O)NC(=O)C(C)=C/C=C/C(C)C(O)C(C)C(O)C(C)C(OC(C)=O)C1C (stereo unspecified)
GI50 [1]: 2640 nM | TGI [1]: 12100 nM | GI50 [2]: 3410 nM | TGI [2]: 10300 nM | GI50 [3]: 1960 nM | TGI [3]: 8980 nM | GI50 [4]: 1750 nM | TGI [4]: 7130 nM | GI50 [5]: 2780 nM | TGI [5]: 11300 nM | GI50 [6]: 1930 nM | TGI [6]: 8510 nM | GI50 [7]: 2070 nM | TGI [7]: 10900 nM | GI50 [8]: 1270 nM | TGI [8]: 4950 nM | GI50 [9]: 1200 nM | TGI [9]: 3000 nM | GI50 [10]: 1480 nM | TGI [10]: 5450 nM | GI50 [11]: 1710 nM | TGI [11]: 6160 nM | GI50 [12]: 1630 nM | TGI [12]: 7420 nM | GI50 [13]: 867 nM | TGI [13]: 2860 nM | GI50 [14]: 1820 nM | TGI [14]: 7870 nM | GI50 [15]: 3760 nM | TGI [15]: 12600 nM | GI50 [16]: 2370 nM | TGI [16]: 7960 nM | GI50 [17]: 1840 nM | TGI [17]: 7140 nM | GI50 [18]: 1050 nM | TGI [18]: 2600 nM | GI50 [19]: 1660 nM | TGI [19]: 7180 nM | GI50 [20]: 1810 nM | TGI [20]: 7460 nM | GI50 [21]: 1600 nM | TGI [21]: 3580 nM | GI50 [22]: 1580 nM | TGI [22]: 6620 nM | GI50 [23]: 2180 nM | TGI [23]: 8820 nM | GI50 [24]: 992 nM | TGI [24]: 2580 nM | GI50 [25]: 2500 nM | TGI [25]: 8830 nM | GI50 [26]: 4230 nM | TGI [26]: 11800 nM | GI50 [27]: 963 nM | TGI [27]: 1930 nM | GI50 [28]: 1040 nM | TGI [28]: 2410 nM
